Test results as given in US20040192686A1, “Benzoazine mono-N-oxides and benzoazine 1,4 dioxides and compositions therefrom for the therapeutic use in cancer treatments” (Auckland Uniservices Limited, priority 2003, published 2004).
Converted amounts (≈) assume the structure as drawn. Read-outs that look alike come from different tables or passages of the source.

Experiments:
[1] = Approximate solubility limit in Alpha MEM culture medium containing 5% fetal calf serum; type: physicochemical; conditions: plasma or biological fluid, kinetic from dmso stock, dilution from DMSO stock solutions
[2] = Plasma pharmacokinetics after intraperitoneal administration; type: in vivo, CD-1 mice
Protocol: The plasma pharrmacokinetics of SR 4317 and TPZ were determined in C3H mice, alone and in combination (FIG. 6), to assess whether therapeutic concentrations of SR 4317 can be achieved in mice.

HT29 cells [3] = test: TPZ potentiation test: IC50 of TPZ with and without potentiator, anoxic HT29 cells; type: cell-based, human; conditions: 4 hr anoxic exposure of HT29 cells
HT29 cells [4] = test: Radiosensitisation of anoxic HT29 cells; type: cell-based, human; conditions: 0.6 mM of each agent; anoxic HT29 cells irradiated 5 min after drug addition
Protocol: Anoxic cell suspensions were irradiated 5 min after addition of pre-equilibrated anoxic drug solutions. Data are shown for duplicate determinations, and are fitted using a linear-quadratic model

HT-29 MCLs = type: in vitro ADME, human
Protocol: Compounds are added to the donor compartment, along with ^14C-urea as an internal standard, and diffusion into the receiver compartment is monitored by HPLC and scintillation counting.
The concentrations in the Receiver compartment (normalised against the initial concentration in the Donor compartment) are plotted against those of the flux marker ^14C-urea to account for small differences in thickness of the MCLs. The fitted diffusion coefficients for TPZ (n=12) and SR 4317 (n=2) are: […] cm^2 sec^−1, respectively.
The inventors have also investigated the extravascular transport properties (tissue diffusion characteristics) of SR 4317 to assess whether it can diffuse well enough to reach hypoxic cells in tumours efficiently. This study used the multicellular layer (MCL) assay (Hicks et al., Int. J. Radiat. Oncol., Biol., Phys., 1998, 42, 641; Hicks et al., J. Pharmacol. Exper. Ther., 2001, 297, 1088), developed in this laboratory.

[5] = test system: HT29 colon carcinoma cells; test: IC50 assay of potentiator alone, HT29 cells, 4 hr anoxic exposure, sulphorhodamine B staining; type: cell-based, human; conditions: Homo sapiens, HT-29, 4 hr exposure under anoxic conditions, cell density by sulphorhodamine B five days after washing out
Solubility of SR 4317 = type: physicochemical
[6] = test system: hypoxic (radioresistant) cells in HT29 tumours; test: HT29 tumour xenograft excision assay: clonogenic survivors 18 hr after radiation and drug; type: in vivo, mice
Protocol: Animals with subcutaneous tumours (ca 300 mg) received whole body radiation (RAD; 20 Gy) to sterilise oxygenated tumour cells. Activity of drugs against the hypoxic survivors was determined by intraperitoneal administration of solutions in 5% DMSO/saline 5 min after radiation, using TPZ alone (133 μmol/kg) or in combination with SR 4317 (1000 μmol/kg). Tumours were excised 18 hr after treatment, dissociated enzymatically, and plated to determine the number of clonogenic survivors. Values are geometric means and error bars are standard errors of the mean. Horizontal lines show historical values for untreated controls and radiation only (solid lines are means, dashed lines are 95% confidence limits. p values were determined by one-way ANOVA using only data within this experiment.
The utility of SR 4317 as a potentiator of the hypoxic cytotoxicity of TPZ was assessed in an in vivo model (HT29 tumour xenografts) as illustrated in FIG. 7. In this experiment tumour response was determined by excising tumours 18 hr after treatment and quantifying the number of clonogenic survivors by plating in vitro. TPZ was administered at a sub-efficacious dose (0.133 mmol/kg), 5 minutes after whole body radiation (20 Gy). […] No significant cytotoxicity was observed when the two compounds were administered in the absence of irradiation, indicating lack of activity against aerobic cells in tumours (FIG. 7).

[7] = test system: HT29 human colon carcinoma cells; test: Cytotoxicity (plating efficiency) in stirred single cell suspensions of HT29 cells, anoxic or aerobic; conditions: for Potentiation of the aerobic cytotoxicity of TPZ: HT29 cells, gas phase 5% CO2 in air
Text: Cultures were maintained at <10 ppm O2 under a continuously-flowing stream of 5% CO2 in nitrogen and were sampled at intervals to determine plating efficiency.
Experimental conditions were as for FIG. 2, except that the gas phase was 5% CO2 in air. Values are means and error bars are ranges for duplicate cultures.
Drug exposure time was 1 hr. Error bars represent the range for duplicate determinations.

[8] = TPZ 30 μM, anoxic HT29 cells 5×10^5/ml, drug exposure 1 hr

With `Nc1nc2ccccc2[n+]([O-])n1` [Compound 3, 1,2,4-Benzotriazin-3-amine 1-oxide] the solubility [1] was 800 µM (≈ 130 µg/mL), the “Maximum SR 4317 concentration in plasma” value ([2]; after intraperitoneal co-administration of TPZ + SR 4317 (750 μmol/kg), mice) was ~200 µM and the “Plasma concentrations in mice” value ([2]; general statement) was “relatively low”. The Clearance from plasma ([2]; over the first two hours after co-administration of TPZ and SR 4317, mice) was “slow clearance”, the “TPR (TPZ potentiation ratio) = TPZ IC50 without potentiator/TPZ IC50 with potentiator” value (HT29 cells [3]; conc of potentiator 0.5 mM) was 2.0 and the “Relative potency for radiosensitization of hypoxic HT29 cells” value (“Relative potency for radiosensitization” below) (HT29 cells [4]) was “misonidazole>metronidazole=SR4317”. For the same molecule, the “Transport through hypoxic MCLs” value (HT-29 MCLs) was “faster than for TPZ”, the IC50 [5] was > 500 µM and the solubility (Solubility of SR 4317; aqueous solution, read-out: Aqueous solubility) was ~800 µM (≈ 130 µg/mL). For the same molecule, the solubility (Solubility of SR 4317; as stated for the HT29 cell suspension experiment (FIG. 1), read-out: Solubility limit) was ~1000 µM (≈ 162 µg/mL), the “Activity of radiation + TPZ + SR 4317 compared with radiation alone” value ([6]; SR 4317 1 mmol/kg added to TPZ 0.133 mmol/kg after 20 Gy, p<0.01 by one way ANOVA) was “greater than radiation alone” and the “Difference between radiation+TPZ and radiation+TPZ+SR 4317” value ([6]; SR 4317 1 mmol/kg, TPZ 0.133 mmol/kg, 20 Gy, p <0.05) was “significant”. For the same molecule, the “Potentiation of the cytotoxicity of TPZ to hypoxic tumour cells” value ([7]; HT29 cells in culture, anoxic (<10 ppm O2), TPZ 30 μM, simultaneous exposure) was “increased quite markedly”, the “Potentiation of the aerobic cytotoxicity of TPZ” value ([7]; listed as SR 4317) was “does not potentiate” and the “Potentiation of the aerobic cytotoxicity of TPZ” value ([7]; listed as SR4317) was “lack of potentiation”. The “Potentiation of TPZ cytotoxicity” value ([7]; SR 4317 at 100 μM for 1 hr, TPZ 30 μM, anoxic HT29 cells) was “significant potentiation”, the “Relative dose potency for potentiation of the hypoxic cytotoxicity of TPZ” value (shortened to “Relative dose potency for potentiation”) [7, 8] was “SR 4317>metronidazole=misonidazole” and the “Toxicity of SR4317 alone” value ([7]; anoxic HT29 suspension, 5×10^5 cells/ml, up to its solubility limit (ca 1 mM)) was “non-toxic”.
In the case of `COc1nc2ccccc2[n+]([O-])n1` [Compound 71, 3-Methoxy-1,2,4-benzotriazine 1-oxide], the solubility [1] is reported as 300 µM (≈ 53.1 µg/mL), the “TPR (TPZ potentiation ratio) = TPZ IC50 without potentiator/TPZ IC50 with potentiator” value (HT29 cells [3]; conc of potentiator 0.3 mM) is reported as 3.3 and the IC50 [5] is reported as > 300 µM.
For `CNCCNc1nc2ccccc2[n+]([O-])n1` [Compound 130, N^1-Methyl-#f-(1-oxido-1,2,4-benzotriazin-3-yl)-1,2-ethanediamine], the solubility [1] was 3000 µM (≈ 658 µg/mL), the “TPR (TPZ potentiation ratio) = TPZ IC50 without potentiator/TPZ IC50 with potentiator” value (HT29 cells [3]; conc of potentiator 1.0 mM) was 6.1 and the IC50 [5] was 2300 µM.
With `Nc1n[n+]([O-])c2ccccc2[n+]1[O-]` [TPZ, tirapazamine, reference compound] the IC50 (HT29 cells [3]; Homo sapiens, HT-29, mean ± sem, n = 4, read-out: IC50 for TPZ alone) was 6.8 µM and the “Killing of the (hypoxic) cells surviving radiation” value ([6]; TPZ alone 0.133 mmol/kg i.p. 5 minutes after whole body radiation (20 Gy), HT29 xenografts, clonogenic survivors at 18 hr) was “did not result in statistically significant killing”.
In the case of `Cc1ncc([N+](=O)[O-])n1CCO` [metronidazole, reference compound], the “Relative potency for radiosensitization” value (HT29 cells [4]) is reported as “misonidazole>metronidazole=SR4317” and the “Relative dose potency for potentiation” value [7] is reported as “lower dose potency than SR 4317”.
With `COCC(O)Cn1ccnc1[N+](=O)[O-]` (stereo not drawn) [misonidazole, reference compound] the “Relative potency for radiosensitization” value (HT29 cells [4]) was “misonidazole>metronidazole=SR4317” and the “Relative dose potency for potentiation” value [7, 8] was “lower dose potency than SR 4317”.
